The record followed here is US20260250290A1 (BRISTOL-MYERS SQUIBB COMPANY, priority 2023, published 2026).

Counter-ions that a name gives are not always drawn.

The target in the assay is T1, full length SGK1 (Homo sapiens, UniProt O00141).
T1 construct: 125 μM full length SGK1 (Life Technologies Part #PR7358A); purchased Life Technologies PR7358A
T1 sequence (O00141 1-431): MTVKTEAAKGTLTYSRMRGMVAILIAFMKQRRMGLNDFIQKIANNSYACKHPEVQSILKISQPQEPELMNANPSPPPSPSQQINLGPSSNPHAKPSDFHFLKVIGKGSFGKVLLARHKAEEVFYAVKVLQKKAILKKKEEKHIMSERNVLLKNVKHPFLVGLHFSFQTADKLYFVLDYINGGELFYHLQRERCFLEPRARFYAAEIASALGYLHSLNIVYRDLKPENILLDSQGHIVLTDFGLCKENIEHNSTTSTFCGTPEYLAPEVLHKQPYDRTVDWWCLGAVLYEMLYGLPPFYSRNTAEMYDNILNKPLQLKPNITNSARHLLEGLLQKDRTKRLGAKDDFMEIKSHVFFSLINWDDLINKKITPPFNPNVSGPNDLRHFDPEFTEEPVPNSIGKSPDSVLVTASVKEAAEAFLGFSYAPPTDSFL
As to the kind of experiment: SGK1 inhibition Assay A (Caliper LabChip electrophoretic separation of fluorescent peptide substrate and phosphorylated product). In kind it is biochemical. The note with it: Assay A; 20 μM ATP, 40 min incubation; read-out: SGK1 IC50.
In the case of `CC(=O)N1CC=C(c2cc(N3CCC[C@@H](NC(=O)c4sc5ccc(C#N)cc5c4OC4CCNCC4)C3)c3c(N)ncnn23)C1` [Example 677, (R)—N-(1-(7-(1-acetyl-2,5-dihydro-1H-pyrrol-3-yl)-4-aminopyrrolo[2,1-f][1,2,4]triazin-5-yl)piperidin-3-yl)-5-cyano-3-(piperidin-4-yloxy)benzo[b]thiophene-2-carboxamide], the IC50 was 35 nM.

On to `CS(=O)(=O)c1ccc(-c2cc(N3CCC[C@@H](NS(=O)(=O)c4ccccc4)C3)c3c(N)ncnn23)cc1` [Example 274, (R)—N-(1-(4-amino-7-(4-(methylsulfonyl)phenyl)pyrrolo[2,1-f][1,2,4]triazin-5-yl)piperidin-3-yl)benzenesulfonamide], for which the IC50 is 916 nM.

Take `CC(=O)N1CC=C(c2cc(N3CCC[C@@H](NC(=O)c4ccc(C)s4)C3)c3c(N)ncnn23)C1` [Example 255, (R)—N-(1-(7-(1-acetyl-2,5-dihydro-1H-pyrrol-3-yl)-4-aminopyrrolo[2,1-f][1,2,4]triazin-5-yl)piperidin-3-yl)-5-methylthiophene-2-carboxamide]: the 50% inhibitory concentration (IC50) stood at 10 nM.

`COC(=O)N1CC=C(c2cc(N3CCC[C@@H](NC(=O)c4sc5ccc(F)cc5c4OC4CCNCC4)C3)c3c(N)ncnn23)C1` [Example 686, methyl (R)-3-(4-amino-5-(3-(5-fluoro-3-(piperidin-4-yloxy)benzo[b]thiophene-2-carboxamido)piperidin-1-yl)pyrrolo[2,1-f][1,2,4]triazin-7-yl)-2,5-dihydro-1H-pyrrole-1-carboxylate]: the IC50 was 7 nM.

For the molecule `COC(=O)N1CC=C(c2cc(N3CCC[C@@H](NC(=O)c4sc(Cl)cc4OCCN4CC5(COC5)C4)C3)c3c(N)ncnn23)C1` [Example 289, Methyl (R)-3-(5-(3-(3-(2-(2-oxa-6-azaspiro[3.3]heptan-6-yl)ethoxy)-5-chlorothiophene-2-carboxamido)piperidin-1-yl)-4-aminopyrrolo[2,1-f][1,2,4]triazin-7-yl)-2,5-dihydro-1H-pyrrole-1-carboxylate], the IC50 stood at 14 nM.

`CC(=O)N1CC=C(c2cc(N3CCC[C@@H](NC(=O)c4cc(N5CCOCC5)cs4)C3)c3c(N)ncnn23)C1` [Example 272, (R)—N-(1-(7-(1-acetyl-2,5-dihydro-1H-pyrrol-3-yl)-4-aminopyrrolo[2,1-f][1,2,4]triazin-5-yl)piperidin-3-yl)-4-morpholinothiophene-2-carboxamide]: the half-inhibitory concentration (IC50) is 28 nM.

As to `CS(=O)(=O)c1ccc(-c2cc(N3CCC[C@@H](NC(=O)c4cn5ccccc5n4)C3)c3c(N)ncnn23)cc1` [Example 36], the IC50 is 41 nM.

With `Nc1ncnn2c(-c3ccc(OC(F)F)nc3)cc(N3CCC[C@@H](NC(=O)c4ccc(Cl)s4)C3)c12` [Example 538, (R)-N-(1-(4-amino-7-(6-(difluoromethoxy)pyridin-3-yl)pyrrolo[2,1-f][1,2,4]triazin-5-yl)piperidin-3-yl)-5-chlorothiophene-2-carboxamide], the 50% inhibitory concentration (IC50) is 20 nM.

`Nc1ncnn2c(-c3cncnc3)cc(N3CCC[C@@H](NC(=O)c4sc(Cl)cc4OC4CCN(C5CC5)CC4)C3)c12` [Example 617, (R)-N-(1-(4-amino-7-(pyrimidin-5-y1)pyrrolo[2,1-f][1,2,4]triazin-5-yl)piperidin-3-y1)-5-chloro-3-((1-cyclopropylpiperidin-4-yl)oxy)thiophene-2-carboxamide]: the half-maximal inhibitory concentration (IC50) came to 24 nM.

On to `CC(=O)N1CC=C(c2cc(N3CCC[C@@H](NC(=O)c4cccc(N5CC(=O)NC(C)C5)n4)C3)c3c(N)ncnn23)C1` (stereo partly drawn) [Example 775, N-((R)-1-(7-(1-acetyl-2,5-dihydro-1H-pyrrol-3-yl)-4-aminopyrrolo[2,1-f][1,2,4]triazin-5-yl)piperidin-3-yl)-6-(3-methyl-5-oxopiperazin-1-yl)picolinamide, 2 TFA], for which the IC50 worked out at 9 nM.

In the case of `CC(=O)N1CC=C(c2cc(N3CCC[C@@H](NC(=O)c4sc(Cl)cc4OC4CC5CC4CN5)C3)c3c(N)ncnn23)C1` (single isomer, unassigned) [Example 607], the IC50 is 3 nM.

For `CC(=O)N1CC=C(c2cc(N3CCC[C@@H](NC(=O)c4nn(-c5ccccc5)nc4C)C3)c3c(N)ncnn23)C1` [Example 471, (R)-N-(1-(7-(1-acetyl-2,5-dihydro-1H-pyrrol-3-yl)-4-aminopyrrolo[2,1-f][1,2,4]triazin-5-yl)piperidin-3-yl)-5-methyl-2-phenyl-2H-1,2,3-tricazole-4-arboxamide], the half-inhibitory concentration (IC50) turned out to be 146 nM.

Consider `COC(=O)N1CC=C(c2cc(N3CCC[C@@H](NC(=O)c4sc5ccccc5c4OC4CCN(C(C)C)CC4)C3)c3c(N)ncnn23)C1` [Example 659, methyl (R)-3-(4-amino-5-(3-(3-((1-isopropylpiperidin-4-yl)oxy)benzo[b]thiophene-2-carboxamido)piperidin-1-yl)pyrrolo[2,1-f][1,2,4]triazin-7-yl)-2,5-dihydro-1H-pyrrole-1-carboxylate], for which the IC50 came to 7 nM.

Turning to `CS(=O)(=O)c1ccc(-c2cc(N3CC[C@@H](F)[C@@H](NC(=O)c4ccc(Cl)s4)C3)c3c(N)ncnn23)cc1` (relative stereo) [Example 143, rel-N-((3R,4S)-1-(4-amino-7-(4-(methylsulfonyl)phenyl)pyrrolo[2,1-f][1,2,4]triazin-5-yl)-4-fluoropiperidin-3-yl)-5-chlorothiophene-2-carboxamide, TFA], the half-inhibitory concentration (IC50) is 10 nM.

Regarding `CC(=O)NCCOc1cc(C(F)F)sc1C(=O)N[C@@H]1CCCN(c2cc(-c3ccc(C#N)nc3)n3ncnc(N)c23)C1` [Example 425, (R)-3-(2-acetamidocthoxy)-N-(1-(4-amino-7-(6-cyanopyridin-3-yl)pyrrolo[2,1-f][1,2,4]triazin-5-yl)piperidin-3-yl)-5-(difluoromethyl)thiophene-2-carboxamide], the half-inhibitory concentration (IC50) amounted to 14 nM.

For the molecule `CN(C)CCOc1cc(Cl)sc1C(=O)N[C@@H]1CCCN(c2cc(-c3ccnc(C#N)c3)n3ncnc(N)c23)C1` [Example 280, (R)-N-(1-(4-amino-7-(2-cyanopyridin-4-yl)pyrrolo[2,1-f][1,2,4]triazin-5-yl)piperidin-3-yl)-5-chloro-3-(2-(dimethylamino)ethoxy) thiophene-2-carboxamide], the IC50 was found to be 2 nM.

As to `CC(=O)N1CC=C(c2cc(N3CCCC(NC(=O)c4sc(Cl)cc4OC4CC5CC4CN5C)C3)c3c(N)ncnn23)C1` (single isomer, unassigned) [Example 608], the IC50 worked out at 8 nM.

As for `CN(C)CCOc1cc(C2CC2)sc1C(=O)N[C@@H]1CCCN(c2cc(-c3cncnc3)n3ncnc(N)c23)C1` [Example 374, (R)-N-(1-(4-amino-7-(pyrimidin-5-yl)pyrrolo[2,1-f][1,2,4]triazin-5-yl)piperidin-3-yl)-5-cyclopropyl-3-(2-(dimethylamino)ethoxy) thiophene-2-carboxamide], the IC50 was 111 nM.

Regarding `CS(=O)(=O)c1ccc(-c2cc(N3CC[C@H](F)[C@@H](NC(=O)c4ccc(Cl)s4)C3)c3c(N)ncnn23)cc1` (relative stereo) [Example 144, rel-N-((3R,4R)-1-(4-amino-7-(4-(methylsulfonyl)phenyl)pyrrolo[2,1-f][1,2,4]triazin-5-yl)-4-fluoropiperidin-3-yl)-5-chlorothiophene-2-carboxamide, TFA], the half-inhibitory concentration (IC50) came out at 24 nM.

Turning to `COC(=O)N1CC=C(c2cc(N3CCC[C@@H](NC(=O)c4sc(C(F)F)cc4N4CC5(COC5)C4)C3)c3c(N)ncnn23)C1` [Example 317, Methyl (R)-3-(4-amino-5-(3-(5-(difluoromethyl)-3-(2-oxa-6-azaspiro[3.3]heptan-6-yl)thiophene-2-carboxamido)piperidin-1-yl)pyrrolo[2,1-f][1,2,4]triazin-7-yl)-2,5-dihydro-1H-pyrrole-1-carboxylate], the IC50 was 34 nM.

For `Cc1cc(N2CCN(C)CC2)c(C(=O)N[C@@H]2CCCN(c3cc(-c4ccnc(F)c4)n4ncnc(N)c34)C2)s1` [Example 199, (R)—N-(1-(4-amino-7-(2-fluoropyridin-4-yl)pyrrolo[2,1-f][1,2,4]triazin-5-yl)piperidin-3-yl)-5-methyl-3-(4-methylpiperazin-1-yl)thiophene-2-carboxamide, 3 TFA], the IC50 is 2 nM.

Take `CS(=O)(=O)c1ccc(-c2cc(N3CCC[C@@H](NC(=O)c4ccc(Cl)s4)C3)c3c(N)ncnn23)cc1` [Example 94, (R)-N-(1-(4-amino-7-(4-(methylsulfonyl)phenyl)pyrrolo[2,1-f][1,2,4]triazin-5-yl)piperidin-3-yl)-5-chlorothiophene-2-carboxamide]: the 50% inhibitory concentration (IC50) was 3 nM.

In the case of `Nc1ncnn2c(-c3ccncc3)cc(N3CCC[C@@H](NC(=O)c4ccccc4)C3)c12` [Example 126, N-[(3R)-1-[4-amino-7-(pyridin-4-yl)pyrrolo[2,1-f][1,2,4]triazin-5-yl]piperidin-3-yl]benzamide], the IC50 amounted to 5 nM.

As to `CC(=O)N1CC=C(c2cc(N3CCC[C@@H](NC(=O)c4cc(-c5cncnc5)n[nH]4)C3)c3c(N)ncnn23)C1` [Example 501, (R)-N-(1-(7-(1-acetyl-2,5-dihydro-1H-pyrrol-3-yl)-4-aminopyrrolo[2,1-f][1,2,4]triazin-5-yl)piperidin-3-yl)-3-(pyrimidin-5-yl)-1H-pyrazole-5-carboxamide], the IC50 stood at 292 nM.

For the molecule `COC(=O)N1CC=C(c2cc(N3CCC[C@@H](NC(=O)c4sc(Cl)cc4OC4CNC4)C3)c3c(N)ncnn23)C1` [Example 568, Methyl (R)-3-(4-amino-5-(3-(3-(azetidin-3-yloxy)-5-chlorothiophene-2-carboxamido)piperidin-1-yl)pyrrolo[2,1-f][1,2,4]triazin-7-yl)-2,5-dihydro-1H-pyrrole-1-carboxylate], the 50% inhibitory concentration (IC50) was determined as 5 nM.
